Legend:
honey bee, A. mellifera = experiment: Acute topical toxicity to adult honey bees; assay type: in vivo, Apis mellifera; conditions: bifenthrin positive control, 0.3 μg per bee (0.1 μg/bee) topical, 48 h
Protocol: Frames of late-stage honey bee (A. mellifera) pupae were taken from four colonies at The Ohio State University Honey Bee Lab in Wooster, OH and maintained in a dark humid incubator at 34 °C (Darwin Chambers Co., St. Louis, MO, model H024) until adult bees emerged. New adults were brushed from frames daily and placed in wooden screen cages (21 × 14 × 12 cm) provisioned with 1:1 (w/w) sucrose in water.
Acute toxicity experiments in adult bees were performed as follows. Twenty-four hours after emergence, adult honey bees in cages were anaesthetized with carbon dioxide, divided into groups of approximately 20 bees and placed in plastic-coated paper cups (177 cm^3; UNIQ Paper Yogurt Cup, Frozen Dessert Supplies, Gilbert, AZ) covered with cotton cheesecloth. […] As a positive control, some bees were treated with 3 μl of bifenthrin (0.1 μg/μl); negative controls consisted of bees treated with 3 μl of solvent. Applications were made using a 20 μl micropipette (Fisherbrand Finnpipette F2, Fisher Scientific, Pittsburgh, PA) with disposable plastic tips. After treatment, bees were returned to the paper cups and provided with sugar syrup in punctured 1.5 ml microcentrifuge tubes. […] Bees showing no movement on inspection at 48 h after treatment were scored as dead.

AnKir1 = molecular target: T1, AnKir1 (Anopheles gambiae, UniProt A0A075M2J8); experiment: Tl+ flux assay in T-REx-HEK293 cells expressing AnKir1; assay type: cell-based; conditions: Tl+ flux; for IC50: Tables S2/S3 and supplemental text, read-out: AnKir1 IC50
T1 sequence (A0A075M2J8 1-555): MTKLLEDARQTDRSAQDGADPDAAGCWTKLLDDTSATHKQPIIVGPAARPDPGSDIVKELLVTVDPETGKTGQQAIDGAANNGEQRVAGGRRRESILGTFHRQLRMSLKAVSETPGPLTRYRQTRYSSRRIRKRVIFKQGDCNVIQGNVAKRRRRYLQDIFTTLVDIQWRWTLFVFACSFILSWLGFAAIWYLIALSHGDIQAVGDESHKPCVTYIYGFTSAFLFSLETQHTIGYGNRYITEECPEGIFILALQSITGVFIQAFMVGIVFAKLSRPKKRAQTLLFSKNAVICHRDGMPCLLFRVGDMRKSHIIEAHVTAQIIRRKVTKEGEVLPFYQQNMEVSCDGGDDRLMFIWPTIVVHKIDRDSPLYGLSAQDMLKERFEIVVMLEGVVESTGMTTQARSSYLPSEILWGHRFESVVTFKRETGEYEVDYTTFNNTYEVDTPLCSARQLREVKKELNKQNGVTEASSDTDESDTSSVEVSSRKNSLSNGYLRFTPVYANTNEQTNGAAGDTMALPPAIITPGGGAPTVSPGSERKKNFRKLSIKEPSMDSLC
Protocol: Tl^+ flux assays were performed essentially as described previously. Briefly, stably transfected T-Rex-HEK-293 cells expressing AnKir1 channels were cultured overnight in 384-well plates (20,000 cells/20 μL/well black-walled, clear-bottomed BD PureCoat amine-coated plates (BD, Bedford, MA) with a plating media containing DMEM, 10% dialyzed FBS and 1 μg/mL tetracycline. Approximately twenty-four hours after cell plating, the cell culture medium was replaced with a dye-loading solution containing assay buffer (Hanks Balanced Salt Solution with 20 mM HEPES, pH 7.3), 0.01% (w/v) Pluronic F-127 (Life Technologies, Carlsbad, CA), and 1.2 μM of the thallium-sensitive dye Thallos-AM (TEFlabs, Austin, TX). Following 1 hr incubation at room temperature, the dye-loading solution was washed from the plates and replaced with 20 μL/well of assay buffer.
Tl+ flux assay development
Tl+ flux assays were performed essentiall y as described previousl y (1). Briefl y, stabl y transfect ed T-Rex -HEK- 293- AnKir1 cells were cultured overnight in 384-well plates in media containing DMEM, 10% dial yz ed FBS and 1μg/ m L tetrac ycline to induce channel expression
(Fig. S1A). The next day, the cell culture medium was replaced with a dye-loading solution containing assay buffer (Hanks Balanced Salt Solution with 20 mM HEPES, pH 7.3), 0.01% (w/v) Pluronic F-127 (Li fe Technologies, Carlsbad, CA), and 1.2 μM of the thallium-sensitive dye Thallos-AM (TEFl abs, Austin, TX). Following 1 hr incubation at room temperature, the d ye-loading solution was washed from the plates and replaced with 20 μ L/well of assa y buffer. The plates were transferred t o a Ham amatsu Functional Drug Screening System 6000 (FDSS6000; Hamamatsu, Tokyo, J apan) where 20 μ L/well of test compounds in assay buffer (as prepared below) were added and allowed to incubate with the cells for 20 min. After the incubation period, a baseline recordi ng was collected at 1 Hz for 10 s (excitation 470 ± 20 nm, emission 540 ± 30 nm) followed by a t hallium stimulus buffer addition (10 μL/well) and data collection for an additional 4 min. The Tl + stimulus buffer contains in (mM) 125 NaHCO3, 1.8 CaSO4, 1 MgSO4, 5 glucose, 12 Tl2SO4, 10 HEPES, pH 7.4. For Tl + flux assays on Kir2.x, Kir4.1 and Kir6.2/SUR1 ex pressing cells, the Tl+ stimulus buffer contained 1.8 mM Tl 2SO4. To ensure the small-molecule vehicle DMSO had no direct effect on An Ki r1-dependent Tl+ flux, the assa y’s tolerance to different doses of DMSO was evaluated (Fig. S1B). The robustness and reproducibility of the assay was determined by comparing Tl+ flux through tetracycline-induced and tetracycline-uninduced cells (Fig. S1C). The Z’ value was calculated as described previously (1 ), using the […]
Z’ = 1- (3SD p + 3SD n)/ |meanp + meann | where SD is standard deviation, p and n are control and uninduced flux values respectivel y.
To compare the effect of DMSO on An Kir1-mediated Tl+ flux, a one-way ANOVA was performed with a Tuke y’s multiple comparison test. Prism software (GraphPad Software) was used to generate CRC from Tl+ fl ux ..Half-inhibition concentration (IC50) values were calculated from fits using a four parameter logistic equation.
High-throughput screeni ng
The test compounds were transferred to daughter pol yprop ylene 384-well plates (G reiner Bio-One, Monroe, NC) using an Echo555 liquid handler (Labcyte, Sunnyvale, CA), and then diluted into assay buffer to generat e a 2X stock in 0.6% DMSO (0.3% final). For Tl+ flux assays on Kir6.2/SUR1 expressing cells, test compounds were diluted in assay buffer containing diazoxide (250 μM final) to induce channel activation. Concentration- response curves (CRCs) were gener ated b y screening compounds at 3-fold dilution series (1 nM - 30 μM).
Tl+ flux data were anal yzed as previousl y d escri bed (2, 3) using a combination of Excel (Microsoft Corp, Redmond, WA) with XLfit add-in (IDBS, Guildford, Surre y, UK), Ori ginPro […]

An. gambiae G3 strain = system: An. gambiae G3 strain; design: method as in PMID 26047119; conditions: topical, (95% confidence limits); cited from earlier work
An. gambiae Akron strain = conditions: topical, (95% confidence limits); cited from earlier work
mosquito Kir1 channels = system: mosquito Kir1 channels; design: method as in PMID 24959745; conditions: read-out: IC50 against mosquito Kir1 channels in vitro; cited from earlier work
mosquitoes = system: mosquitoes; design: method as in PMID 24959745; conditions: cited from earlier work

Structure (SMILES): Cc1c(COC(=O)[C@@H]2[C@H](/C=C(\Cl)C(F)(F)F)C2(C)C)cccc1-c1ccccc1 (racemic) [bifenthrin, reference compound]
- honey bees dead (mortality) (honey bee, A. mellifera): 100%

Structure (SMILES): O=C(CN1CCCc2ccccc21)N1CCCc2ccccc21 [Compound 6]
- IC50 (AnKir1): 8 µM

Structure (SMILES): O=C(Cn1nc(C(F)(F)F)c2c1CCCC2)N1CCc2ccccc2C1 [Compound 8]
- loss of potency vs VU041 (AnKir1) (AnKir1): ~ 7 fold
- IC50 (AnKir1): 15 µM

Structure (SMILES): O=C(Cn1nc(C(F)(F)F)c2c1CCCC2)N1CCOc2ccccc21 [Compound 14]
- IC50 (AnKir1): 4.6 µM

Structure (SMILES): CC1(C)C(C=C(Cl)Cl)C1C(=O)OCc1cccc(Oc2ccccc2)c1 (stereo not drawn) [Permethrin]
- ED50, G3 Strain (An. gambiae G3 strain): 0.03e-5 (0.02e-5–0.05e-5) μg/mg
- ED50, Akron Strain (An. gambiae Akron strain): 1.0e-3 (0.8e-4–1.3e-3) μg/mg

Structure (SMILES): CCC(=O)N1c2ccc(S(=O)(=O)Nc3cccc(OC)c3)cc2CC1C (stereo not drawn) [VU625]
- IC50 (mosquito Kir1 channels): ~0.1 µM
- topical toxicity to mosquitoes (mosquitoes): not topically toxic to mosquitoes

Source: paper PMC5111108, “An insecticide resistance-breaking mosquitocide targeting inward rectifier potassium channels in vectors of Zika virus and malaria” (Scientific Reports, 2016)
